Measurements: PMC11361638, “Chemical genetic screens reveal defective lysosomal trafficking as synthetic lethal with NF1 loss” (Journal of Cell Science, 2024)

Target: T1, BORCS7 (Homo sapiens, UniProt Q96B45)
T1 construct: endogenous full-length protein in U87-MG cells, subunit of the eight-protein BORC
T1 sequence (Q96B45 1-106): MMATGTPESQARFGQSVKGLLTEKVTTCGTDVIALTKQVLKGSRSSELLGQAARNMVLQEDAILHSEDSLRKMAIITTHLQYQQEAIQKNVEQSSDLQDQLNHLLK
Test: click-chemistry pulldown on alkyne resin, LC-MS/MS
Type: cell-based
Conditions: U87-MG cells treated with 2 µM for 2 h, lysed in 8 M urea; labelled compound; binding subunit within BORC not resolved

## Cn1cnnc1S/C=C/C(=O)c1ccc(CCN=[N+]=[N-])cc1 [az-Y102]
  iBAQ area ratio: Click-chemistry enriched pulldown results for p21 and BORCS7.
